This note sets out measurements from US20070010671A1, “Novel quinazoline derivatives and methods of treatment related to the use thereof” (priority 2003, published 2007).

This experiment deals with MCH receptor (Homo sapiens, UniProt Q99705). Put plainly: High throughput functional screening FLIPR/FDSS6000: inhibition of MCH-evoked intracellular Ca2+ changes. It is filed as cell-based. The conditions noted are these: class by percent of control at 10^−7 M or by IC50; read-out: class. Put shortly: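 Antagonism was measured as inhibition of calcium responses to 50 nM MCH, monitored 290 s at ex 488/em 530 nm on FLIPR or FDSS6000. Beforehand, cells bearing a constitutively active MCH receptor received Fluo4-AM (4 μM, 1 h, 37 °C) with probenecid, and test compound for 3 min.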

As to `CN(C)c1nc(N[C@H]2CC[C@@H](CNC(=O)c3ccc(OC(F)(F)F)cc3)C2)nc2ccccc12` [Example 1128, N-[((1R,3S)-3-{[4-(dimethylamino)quinazolin-2-yl]amino}cyclopentyl)methyl]-4-(trifluoromethoxy)benzamide], the IC50 was over 200 nM. In the case of `CN(C)c1nc(N[C@H]2CC[C@@H](CNC(=O)c3cc(F)ccc3F)C2)nc2ccccc12` [Example 1129, N-[((1R,3S)-3-{[4-(dimethylamino)quinazolin-2-yl]amino}cyclopentyl)methyl]-2,5-difluorobenzamide] it was 50 to 200 nM; in that of `CN(C)c1nc(N[C@H]2CC[C@@H](CNC(=O)c3cc(F)cc(F)c3)C2)nc2ccccc12` [Example 1130, N-[((1R,3S)-3-{[4-(dimethylamino)quinazolin-2-yl]amino}cyclopentyl)methyl]-3,5-difluorobenzamide], under 50 nM; in that of `CN(C)c1nc(NC[C@@H]2CC[C@H](NC(=O)c3cccc(F)c3)C2)nc2ccccc12` [Example 1132, N-[(1S,3R)-3-({[4-(dimethylamino)quinazolin-2-yl]amino}methyl)cyclopentyl]-3-fluorobenzamide], over 200 nM. In the case of `CN(C)c1nc(NC[C@@H]2CC[C@H](NC(=O)c3ccc(F)cc3F)C2)nc2ccccc12` [Example 1133, N-[(1S,3R)-3-({[4-(dimethylamino)quinazolin-2-yl]amino}methyl)cyclopentyl]-2,4-difluorobenzamide] it was over 200 nM; in that of `CN(C)c1nc(N[C@H]2CC[C@@H](C(=O)NCc3ccccc3)CC2)nc2ccccc12` [Example 1135, cis-N-benzyl-4-{[4-(dimethylamino)quinazolin-2-yl]amino}cyclohexanecarboxamide], under 50 nM; in that of `CN(C)c1nc(N[C@H]2CC[C@@H](C(=O)NCc3ccc(Cl)nc3)CC2)nc2ccccc12` [Example 1136, cis-N-[(6-chloropyridin-3-yl)methyl]-4-{[4-(dimethylamino)quinazolin-2-yl]amino}cyclohexanecarboxamide], under 50 nM. For `COc1cccc([C@@H](C)NC(=O)[C@H]2CC[C@@H](Nc3nc(N(C)C)c4ccccc4n3)CC2)c1` [Example 1137, cis-4-{[4-(dimethylamino)quinazolin-2-yl]amino}-N-[(1R)-1-(3-methoxyphenyl)ethyl]cyclohexanecarboxamide] the value was under 50 nM; for `C[C@@H](NC(=O)[C@H]1CC[C@@H](Nc2nc(N(C)C)c3ccccc3n2)CC1)c1ccc(Cl)cc1` [Example 1139, cis-N-[(1R)-1-(4-chlorophenyl)ethyl)-4-{[4-(dimethylamino)quinazolin-2-yl]amino}cyclohexanecarboxamide], under 50 nM; for `C[C@H](NC(=O)[C@H]1CC[C@@H](Nc2nc(N(C)C)c3ccccc3n2)CC1)c1cccc2ccccc12` [Example 1141, cis-4-{[4-(dimethylamino)quinazolin-2-yl]amino}-N-[(1S)-1-(1-naphthyl)ethyl]cyclohexanecarboxamide], under 50 nM.

On to `Cc1cc(C)cc(CNC(=O)[C@H]2CC[C@@H](Nc3nc(N(C)C)c4ccccc4n3)CC2)c1` [Example 1142, cis-4-{[4-(dimethylamino)quinazolin-2-yl]amino}-N-(3,5-dimethylbenzyl)cyclohexanecarboxamide], for which the IC50 is under 50 nM.

As to `Cc1ccc(CNC(=O)[C@H]2CC[C@@H](Nc3nc(N(C)C)c4ccccc4n3)CC2)cc1F` [Example 1143, cis-4-{[4-(dimethylamino)quinazolin-2-yl]amino}-N-(3-fluoro-4-methylbenzyl)cyclohexanecarboxamide], the IC50 is 50 to 200 nM. Turning to `Cc1c(Cl)cccc1CNC(=O)[C@H]1CC[C@@H](Nc2nc(N(C)C)c3ccccc3n2)CC1` [Example 1144, cis-N-(3-chloro-2-methylbenzyl)-4-{[4-(dimethylamino)quinazolin-2-yl]amino}cyclohexanecarboxamide], the IC50 is under 50 nM. For `Cc1ccc(Cl)cc1CNC(=O)[C@H]1CC[C@@H](Nc2nc(N(C)C)c3ccccc3n2)CC1` [Example 1145, cis-N-(5-chloro-2-methylbenzyl)-4-{[4-(dimethylamino)quinazolin-2-yl]amino}cyclohexanecarboxamide] the value was 50 to 200 nM; for `Cc1ccc(F)cc1CNC(=O)[C@H]1CC[C@@H](Nc2nc(N(C)C)c3ccccc3n2)CC1` [Example 1146, cis-4-{[4-(dimethylamino)quinazolin-2-yl]amino}-N-(5-fluoro-2-methylbenzyl)cyclohexanecarboxamide], under 50 nM. With `CN(C)c1nc(N[C@H]2CC[C@@H](C(=O)NCc3c(F)ccc(Cl)c3F)CC2)nc2ccccc12` [Example 1147, cis-N-(3-chloro-2,6-difluorobenzyl)-4-{[4-(dimethylamino)quinazolin-2-yl]amino}cyclohexanecarboxamide], the IC50 was under 50 nM. In the case of `CN(C)c1nc(N[C@H]2CC[C@@H](C(=O)NCc3cccc(-c4ccccc4)c3)CC2)nc2ccccc12` [Example 1148, cis-N-(biphenyl-3-ylmethyl)-4-{[4-(dimethylamino)quinazolin-2-yl]amino}cyclohexanecarboxamide] it was under 50 nM; in that of `Cc1ccc(Cl)c(CNC(=O)[C@H]2CC[C@@H](Nc3nc(N(C)C)c4ccccc4n3)CC2)c1F` [Example 1150, cis-N-(6-chloro-2-fluoro-3-methylbenzyl)-4-{[4-(dimethylamino)quinazolin-2-yl]amino}cyclohexanecarboxamide], under 50 nM; in that of `CN(C)c1nc(N[C@H]2CC[C@@H](C(=O)NCc3ccccc3F)CC2)nc2ccccc12` [Example 1151, cis-4-{[4-(dimethylamino)quinazolin-2-yl]amino}-N-(2-fluorobenzyl)cyclohexanecarboxamide], under 50 nM. In the case of `CN(C)c1nc(N[C@H]2CC[C@@H](C(=O)NCc3c(F)cccc3F)CC2)nc2ccccc12` [Example 1152, cis-N-(2,6-difluorobenzyl)-4-{[4-(dimethylamino)quinazolin-2-yl]amino}cyclohexanecarboxamide] it was under 50 nM; in that of `CN(C)c1nc(N[C@H]2CC[C@@H](C(=O)NCc3ccc(C(F)(F)F)cc3)CC2)nc2ccccc12` [Example 1153, cis-4-{[4-(dimethylamino)quinazolin-2-yl]amino}-N-[4-(trifluoromethyl)benzyl]cyclohexanecarboxamide], under 50 nM. In the case of `CN(C)c1nc(N[C@H]2CC[C@@H](C(=O)NCc3cccc4ccccc34)CC2)nc2ccccc12` [Example 1154] it was under 50 nM; in that of `CN(C)c1nc(N[C@H]2CC[C@@H](C(=O)NCc3ccc(Cl)cc3)CC2)nc2ccccc12` [Example 1155, cis-N-(4-chlorobenzyl)-4-{[4-(dimethylamino)quinazolin-2-yl]amino}cyclohexanecarboxamide], under 50 nM. With `CN(C)c1nc(N[C@H]2CC[C@@H](C(=O)NCc3ccc(Cl)c(Cl)c3)CC2)nc2ccccc12` [Example 1156, cis-N-(3,4-dichlorobenzyl)-4-{[4-(dimethylamino)quinazolin-2-yl]amino}cyclohexanecarboxamide], the IC50 is under 50 nM. Take `CN(C)c1nc(N[C@H]2CC[C@@H](C(=O)NCc3cccc(F)c3)CC2)nc2ccccc12` [Example 1157, cis-4-{[4-(dimethylamino)quinazolin-2-yl]amino}-N-(3-fluorobenzyl)cyclohexanecarboxamide]: the IC50 is under 50 nM. For `CN(C)c1nc(N[C@H]2CC[C@@H](C(=O)NCc3cc(F)ccc3F)CC2)nc2ccccc12` [Example 1158, cis-N-(2,5-difluorobenzyl)-4-{[4-(dimethylamino)quinazolin-2-yl]amino}cyclohexanecarboxamide] the value was under 50 nM; for `CN(C)c1nc(N[C@H]2CC[C@@H](C(=O)NCc3cccc(F)c3F)CC2)nc2ccccc12` [Example 1159, cis-N-(2,3-difluorobenzyl)-4-{[4-(dimethylamino)quinazolin-2-yl]amino}cyclohexanecarboxamide], under 50 nM; for `CN(C)c1nc(N[C@H]2CC[C@@H](C(=O)NCc3cccc(Br)c3)CC2)nc2ccccc12` [Example 1160, cis-N-(3-bromobenzyl)-4-{[4-(dimethylamino)quinazolin-2-yl]amino}cyclohexanecarboxamide], under 50 nM. In the case of `CN(C)c1nc(N[C@H]2CC[C@@H](C(=O)NCc3ccc(F)c(Br)c3)CC2)nc2ccccc12` [Example 1161, cis-N-(3-bromo-4-fluorobenzyl)-4-{[4-(dimethylamino)quinazolin-2-yl]amino}cyclohexanecarboxamide] it was under 50 nM. For `CN(C)c1nc(N[C@H]2CC[C@@H](C(=O)NCc3ccc(Br)cc3F)CC2)nc2ccccc12` [Example 1162, cis-N-(4-bromo-2-fluorobenzyl)-4-{[4-(dimethylamino)quinazolin-2-yl]amino}cyclohexanecarboxamide] the value was under 50 nM; for `CN(C)c1nc(N[C@H]2CC[C@@H](C(=O)NCc3cc(Br)ccc3F)CC2)nc2ccccc12` [Example 1163, cis-N-(5-bromo-2-fluorobenzyl)-4-{[4-(dimethylamino)quinazolin-2-yl]amino}cyclohexanecarboxamide], under 50 nM; for `CN(C)c1nc(N[C@H]2CC[C@@H](C(=O)NCc3ccc(Cl)cc3F)CC2)nc2ccccc12` [Example 1164, cis-N-(4-chloro-2-fluorobenzyl)-4-{[4-(dimethylamino)quinazolin-2-yl]amino}cyclohexanecarboxamide], under 50 nM. In the case of `Cc1cccc(CNC(=O)[C@H]2CC[C@@H](Nc3nc(N(C)C)c4ccccc4n3)CC2)c1` [Example 1165, cis-4-{[4-(dimethylamino)quinazolin-2-yl]amino}-N-(3-methylbenzyl)cyclohexanecarboxamide], the IC50 was under 50 nM. In the case of `Cc1ccccc1CNC(=O)[C@H]1CC[C@@H](Nc2nc(N(C)C)c3ccccc3n2)CC1` [Example 1166, cis-4-{[4-(dimethylamino)quinazolin-2-yl]amino}-N-(2-methylbenzyl)cyclohexanecarboxamide] it was under 50 nM.
